What was measured:
[1] = tested on: Hct116; assay: XTT assay, anti-proliferative action, Hct116; type: cell-based; conditions: Homo sapiens, HCT-116, 45 h, Hct116 cells, 45 h incubation
Experimental: The principle of this test is based on the intracellular reduction of the tetrazolium dye XTT (sodium 3′-[1-(phenylaminocarbonyl)-3,4-tetrazolium]bis(4-methoxy-6-nitro)benzenenesulphonic acid, Sigma) to a formazan dye by mitochondrial dehydrogenases.
The dye is formed only by metabolically active cells; its photometrically measurable intensity is a quantitative indicator for the presence of living cells. The reduction in the dye formation as a result of incubation of the cells with substances serves as a parameter for the anti-proliferative action.
The tumour cell lines (ATCC) were seeded in 96-well microtitre plates in a defined cell count (5000 cells/well for BxPC3 and Hct116; 10 000 cells/well for MDA MB468), and then incubated overnight in an incubator at 37° C., 5% CO2 and 95% air humidity. The test substances were made up as stock solutions (10 mM) in DMSO. […] The cell plates were then incubated for 45 h in an incubator at 37° C., 5% CO2 and 95% air humidity.
For the detection reaction, the XTT substrate was admixed with PMS (N-methyldibenzopyrazine methylsulphate, Sigma) and added to the cells, so as to result in a final concentration of 325 μg of XTT/ml and 2.5 μg PMS/ml. The mixture was then incubated for 3 h at 37° C., 95% air humidity. Subsequently the formazan salt formed by cellular dehydrogenases was quantified at an absorption of 490 nm.
The evaluation of the % inhibition values was done by means of the following formula from the values for the optical densities measured in each case at 490 nm:
The controls were determined 8 times each, the substance samples twice each. 0% control contained no cells; the 100% control contained no test substance. The EC50 values were determined with GraphPadPrism.

[2] = tested on: Jnk1 + Jnk2; assay: Cell-free kinase assay (ALPHA technology), Jnk1 + Jnk2; type: biochemical; conditions: at 10 μM or 100 μM* ATP, recombinant human kinases
Experimental: The inhibitory effect of the inventive compounds was tested on various human serine/threonine kinases, tyrosine kinases and lipid kinases in enzymatic assays. Recombinant human kinases, for example Erk2, PI3Kalpha, -beta, -gamma, -delta, p38alpha, p38gamma, Jnk1, Jnk2 and others were used, in some cases as full-length kinases, in some cases as truncated fragments—but at least consisting of the functional kinase domains. The commercial kinase proteins (Proqinase, Upstate) were used as recombinant fusion proteins with GST (glutathione S-transferase) tag or His tag. Depending on the substrate type, the different kinase reactions were quantified by means of suitable ALPHA™ beads (PerkinElmer). […]
(§1) The fluorescence was detected the next morning in a Fusion™ alpha instrument (Perkin Elmer).
(§2) The calculation of % inhibition values per substance concentration was done by means of the following formula from the raw data determined in the Fusion™ alpha:
(§3) The controls were each determined 8 times, the substance samples each twice. 0% control contained neither any ATP nor any substrate; the 100% control contained no test substance. The IC50 values were determined with GraphPadPrism.

[3] = biological target: T1, Erk2; assay: Cell-free kinase assay (ALPHA technology), Erk2-ALPHA; type: biochemical; conditions: 10 μM ATP, recombinant human kinase
T1 construct: in some cases as full-length kinases, in some cases as truncated fragments; purchased Upstate 14-173
T1 sequence (P63085 whole entry, the tested form may be a part): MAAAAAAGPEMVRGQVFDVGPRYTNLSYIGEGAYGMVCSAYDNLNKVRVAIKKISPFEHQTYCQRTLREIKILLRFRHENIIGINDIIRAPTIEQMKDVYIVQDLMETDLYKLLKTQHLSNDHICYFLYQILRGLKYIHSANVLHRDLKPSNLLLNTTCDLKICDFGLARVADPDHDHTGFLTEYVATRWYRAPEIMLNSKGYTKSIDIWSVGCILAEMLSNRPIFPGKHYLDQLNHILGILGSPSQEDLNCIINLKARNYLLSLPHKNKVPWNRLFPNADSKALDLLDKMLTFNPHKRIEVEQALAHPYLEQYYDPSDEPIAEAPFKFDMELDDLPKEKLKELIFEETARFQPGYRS
Experimental: The inhibitory effect of the inventive compounds was tested on various human serine/threonine kinases, tyrosine kinases and lipid kinases in enzymatic assays. Recombinant human kinases, for example Erk2, PI3Kalpha, -beta, -gamma, -delta, p38alpha, p38gamma, Jnk1, Jnk2 and others were used, in some cases as full-length kinases, in some cases as truncated fragments—but at least consisting of the functional kinase domains. The commercial kinase proteins (Proqinase, Upstate) were used as recombinant fusion proteins with GST (glutathione S-transferase) tag or His tag. Depending on the substrate type, the different kinase reactions were quantified by means of suitable ALPHA™ beads (PerkinElmer).
The substrate testing on the Erk assay is described in detail below. Selected test results of the Erk2, PI3Kalpha assays are cited below. […] The kinase reaction was then stopped by adding 10 μl of the ALPHA bead mix (10 μg/ml, #6760617/PerkinElmer), pre-incubated with anti-phospho MBP antibody (320 μM, #05-429/Upstate), in 25 mM Tris, 200 mM NaCl, 100 mM EDTA and 0.3% BSA, and left to stand overnight. • b) PI3K-ALPHAs (e.g. PI3Kalpha): The test substance, 1 ng of PI3Kalpha (#14-602, Upstate), 100 μM ATP and 20 μM PIP2 substrate (#P4508, Echelon) on a 384-well Optiplate (Perkin Elmer) for 1 h in 50 mM Hepes, 50 mM NaCl, 5 mM MgCl2, 0.05% Chaps, 5 mM DTT at pH 7.4. Subsequently, the kinase reaction was stopped by adding the ALPHA bead mix (10 μg/ml, #6760603/PerkinElmer), preincubated with 1 nM GST:Grp1 fusion protein (Upstate) and 15 nM biotinylated PIP3 (#C-39B6/Echelon) in 50 mM Hepes, 50 mM NaCl, 50 mM EDTA and 0.1% BSA, and left to stand overnight.
as §1, §2, §3

CCNC(=O)Nc1ccc2ncc(Nc3ccc(C)c(NS(C)(=O)=O)c3)nc2n1 [Compound 49, N-{5-[6-(3-Ethylurea)pyrido[2,3-b]pyrazin-3-ylamino]-2-methylphenyl}methanesulphonamide]
EC50 [1]: ~20 µM
IC50 [2]: > 31.6 µM
melting point: 247 to 250 °C
IC50 [3]: 9.6 µM
